pIC50: −log10 of the molar value.
Legend:
HCT 116 (colon) cells = assay: Anti-cancer screen (MTT), HCT 116; assay type: cell-based; settings: Homo sapiens, HCT-116, HCT116, 48 hours, MTT; for GI50: read-out: Cell growth inhibition HCT116 (Colon) GI50; for CC50: read-out: Cell growth inhibition HCT116 (Colon) LC50; for IC (TGI): read-out: Cell growth inhibition HCT116 (Colon) TGI
Experimental: (§1) Experimental drugs were screened for anti-cancer activity in three cell lines using five concentrations for each compound. The cell lines —HCT 116 (colon), NCIH460 (lung) and U251 (glioma) were maintained in DMEM containing 10% fetal bovine serum. 96-well microtiter plates are inoculated with cells in 100 μL of cell suspension (5×10^4 cells/mL) for 24 hours at 37° C., 5% CO2, 95% air and 100% relative humidity. A separate plate with these cell lines is also inoculated to determine cell viability before the addition of the compounds (T0).
(§2) Following 24-hours incubation, test compounds were added to the 96 well plates. Each plate contains one of the above cell lines and the following samples in triplicate: five different dilutions (0.01, 0.1, 1, 10 and 100 μM) of four test compounds, appropriate dilutions of a cytotoxic standard and growth medium (untreated) wells. Test compounds were dissolved in DMSO to prepare 20 mM stock solutions on the day of drug addition and serial dilutions were carried out in complete growth medium at 2× strength such that 100 μL added to wells gave final concentrations (0.01, 0.1, 1, 10 and 100 μM) in the well. SAHA was used as standard drug in these experiments.
(§3) For T0 measurement, 24 hours after seeding the cells, 20 μL of 3-(4,5-dimethyl-2-thiazolyl)-2,5-diphenyl-2H-tetrazolium (MTT) solution per well was added to the ‘T0’ plate and incubated for 3 hours at 37° C. in a CO2 incubator. The plate containing cells and test compounds was treated similarly after 48 hours of incubation. After 3 hours of MTT addition, well contents were aspirated carefully followed by addition of 150 μL DMSO per well. Plates were agitated to ensure dissolution of the formazan crystals in DMSO and absorbance was read at 570 nm (A570).
(§4) (Mosmann T. Rapid colorimetric assay for cellular growth and survival: application to proliferation and cytotoxicity assays. J Immunol Methods 1983; 65(1-2): 55-63; Anne Monks et al. Feasibility of high-flux anticancer drug screen using a diverse panel of cultured human tumor cell lines”. JNCI, Vol. 83, No. 11, 1991).

[1] = tested on: HDAC (Mouse Liver Extract); assay: HDAC inhibition assay using Boc-Lys(Ac)-AMC substrate; assay type: biochemical; settings: mouse liver enzyme
Experimental: Inhibition of HDAC has been implicated to modulate transcription and to induce apoptosis or differentiation in cancer cells. The fluorometric assay provides a fast and fluorescence based method that eliminates radioactivity, extractions or chromatography, as used in traditional assays. The assay is based on two steps. First, the HDAC fluorometric substrate, which comprises an acetylated lysine side chain, is incubated with a sample containing HDAC activity (Mouse Liver Extract). Deacetylation of the substrate sensitizes the substrate, in the second step; treatment with the Trypsin stop solution produces a fluorophore that can be easily analyzed using fluorescence plate reader. Assay was done in 96-well black microplate and total volume of the assay was […]. […] The plate was pre-incubated at 37° C. for 5 minutes. […] The plate was incubated at 37° C. for 30 min. The reaction was stopped by adding 100 μL, of Trypsin stop solution and incubating at 37° C. for 15-30 min. Measuring the fluorescence at excitation wavelength of 360 nm and emission wavelength of 460 nm monitored the release of AMC. Buffer alone and substrate alone served as blank. […] (Dennis Wegener et al, Anal. Biochem, 321, 2003, 202-208).

NCIH460 (lung) cells = assay: Anti-cancer screen (MTT), NCIH460; assay type: cell-based; settings: Homo sapiens, NCI-H460, NCIH460, 48 hours, MTT; for GI50: read-out: Cell growth inhibition NCIH460 (Lung) GI50; for LC50: read-out: Cell growth inhibition NCIH460 (Lung) LC50; for IC (TGI): read-out: Cell growth inhibition NCIH460 (Lung) TGI
Experimental: as §1, §2, §3, §4

[2] = tested on: NCIH460, HCT116 and U251 cells; assay: Anti-cancer screen, mean GI50 over cell lines; assay type: cell-based; settings: mean over cell lines; read-out: Cell growth inhibition Mean GI50
Experimental: as §1, §2, §3, §4

U251 (glioma) cells = assay: Anti-cancer screen (MTT), U251; assay type: cell-based; settings: Homo sapiens, U-251, U251, 48 hours, MTT; for GI50: read-out: Cell growth inhibition U251 (Glioma) GI50; for LC50 (concentration giving 50% net cell kill relative to the time-zero cell count): read-out: Cell growth inhibition U251 (Glioma) LC50; for IC (TGI): read-out: Cell growth inhibition U251 (Glioma) TGI
Experimental: as §1, §2, §3, §4

| Structure (SMILES) | GI50 (HCT 116 (colon) cells) | CC50 (HCT 116 (colon) cells) | IC (TGI) (HCT 116 (colon) cells) | HDAC inhibition % (1 μM) [1] | HDAC inhibition % (10 μM) [1] | GI50 (NCIH460 (lung) cells) | LC50 (NCIH460 (lung) cells) | IC (TGI) (NCIH460 (lung) cells) | GI50 [2] | pIC50 [1] | GI50 (U251 (glioma) cells) | LC50 (concentration giving 50% net cell kill relative to the time-zero cell count) (U251 (glioma) cells) | IC (TGI) (U251 (glioma) cells) |
| --- | --- | --- | --- | --- | --- | --- | --- | --- | --- | --- | --- | --- | --- |
| COc1cc(/C=C(/C(=O)NCc2ccc(C(=O)Nc3ccccc3N)cc2)c2ccc(F)cc2)cc(OC)c1 [Compound 17, N-(2-Aminophenyl)-4-((3-(3,5-dimethoxyphenyl)-2-(4-fluorophenyl)acrylamido)methyl)benzamide] | 29 µM | > 100 µM | 69 µM | 25.7% | 20.3% | 38 µM | > 100 µM | 80 µM | 33.5 µM | – | – | – | – |
| CSc1ccc(/C=C(/C(=O)NCc2ccc(/C=C/C(=O)NO)cc2)c2ccc(F)cc2)cc1 [Compound 76, (1E)-N-(4-(3-(Hydroxyamino)-3-oxoprop-1-enyl)benzyl)-2-(4-fluorophenyl)-3-(4-methylthiophenyl)acrylamide] | 5 µM | > 100 µM | 60 µM | 42.6% | 89.8% | 4.2 µM | > 100 µM | 42.5 µM | 4.6 µM | 7.22 | – | – | – |
| COc1ccc(/C(=C\c2ccc(OC)c(OC)c2)C(=O)NCc2ccc(C(=O)Nc3ccccc3N)cc2)cc1 [Compound 27, N-(2-Aminophenyl)-4-((3-(3,4-dimethoxyphenyl)-2-(4-methoxyphenyl)acrylamido)methyl)benzamide] | 0.4 µM | > 100 µM | > 100 µM | 37.1% | 47.2% | 2.1 µM | – | > 100 µM | 1.2 µM | – | – | – | – |
| Nc1ccccc1NC(=O)c1ccc(CNC(=O)/C(=C/c2ccncc2)c2ccc(F)cc2)cc1 [Compound 15, N-(2-Aminophenyl)-4-((3-(pyridin-4-yl)-2-(4-fluorophenyl)acrylamido)methyl)benzamide] | 2.7 µM | 94 µM | 30 µM | 42.7% | 56.9% | 8.8 µM | 95 µM | 60 µM | 5.8 µM | 5.42 | – | – | – |
| Nc1ccccc1NC(=O)c1ccc(CNC(=O)/C(=C/C2CC2)c2ccc(F)cc2)cc1 [Compound 14, N-(2-Aminophenyl)-4-((3-(cyclopropyl)-2-(4-fluorophenyl)acrylamido)methyl)benzamide] | 5.6 µM | 81 µM | 24 µM | 22.8% | 31.6% | 8 µM | 82 µM | 49 µM | 6.8 µM | – | – | – | – |
| Nc1ccccc1NC(=O)c1ccc(CNC(=O)/C(=C/c2ccc(F)c(C(F)(F)F)c2)c2ccc([N+](=O)[O-])cc2)cc1 [Compound 5, N-(2-Aminophenyl)-4-((3-(4-fluoro-3-trifluoromethylphenyl)-2-(4-nitrophenyl)acrylamido)methyl)benzamide] | 3.1 µM | > 100 µM | 11 µM | 0.0% | −27.4% | 5.5 µM | > 100 µM | > 100 µM | 4.3 µM | – | – | – | – |
| COc1ccc(/C(=C\c2ccc(SC)cc2)C(=O)NCc2ccc(C(=O)Nc3ccccc3N)cc2)cc1 [Compound 16, N-(2-Aminophenyl)-4-((3-(4-methylthiophenyl)-2-(4-methoxyphenyl)acrylamido)methyl)benzamide] | 40 µM | > 100 µM | 82 µM | 30.7% | 46.0% | 45 µM | > 100 µM | 97 µM | 42.5 µM | – | – | – | – |
| CSc1ccc(/C=C(/C(=O)NCc2ccc(C(=O)Nc3ccccc3N)cc2)c2ccccc2Cl)cc1 [Compound 23, N-(2-Aminophenyl)-4-((3-(4-methylthiophenyl)-2-(2-chlorophenyl)acrylamido)methyl)benzamide] | 4 µM | 98 µM | 8 µM | – | – | 34 µM | > 100 µM | > 100 µM | 19 µM | – | > 100 µM | > 100 µM | > 100 µM |
| O=C(CCCCCNC(=O)/C(=C/C1CC1)c1ccc(F)cc1)NO [Compound 93, 6-(2-(4-Fluorophenyl)-3-(cyclopropyl)acrylamido)-N-hydroxy hexanamide] | 54 µM | > 100 µM | > 100 µM | – | – | > 100 µM | > 100 µM | > 100 µM | 73 µM | – | 92 µM | > 100 µM | > 100 µM |
| CSc1ccc(/C=C(/C(=O)NCCCCCC(=O)NO)c2ccccc2F)cc1 [Compound 94, 6-(2-(2-Fluorophenyl)-3-(4-methylthiophenyl)acrylamido)-N-hydroxy hexanamide] | 3.3 µM | 80 µM | 22 µM | – | – | 4.2 µM | 74 µM | 26 µM | 2.8 µM | – | 1 µM | 70 µM | 10 µM |
| CSc1ccc(/C=C(/C(=O)NCc2ccc(C(=O)NO)cc2)c2ccc(C)cc2)cc1 [Compound 58, 4-((2-(4-Methylphenyl)-3-(4-methylthiophenyl)acrylamido)methyl)-N-hydroxybenzamide] | 2.8 µM | 65 µM | 18 µM | – | – | 2.1 µM | 81 µM | 6 µM | 8.6 µM | – | 21 µM | 80 µM | 35 µM |
| COc1ccc(/C(=C\c2ccc(SC)cc2)C(=O)NCCCCCC(=O)NO)cc1 [Compound 92, 6-(2-(4-Methoxyphenyl)-3-(4-methylthiophenyl)acrylamido)-N-hydroxy hexanamide] | 7.5 µM | 87 µM | 46 µM | – | – | 6 µM | 82 µM | 40 µM | 7.8 µM | – | 10 µM | 76 µM | 16 µM |
| COc1ccc(/C(=C\c2ccc(SC)cc2)C(=O)NCc2ccc(C(=O)NO)cc2)cc1 [Compound 57, 4-((2-(4-Methoxyphenyl)-3-(4-methylthiophenyl)acrylamido)methyl)-N-hydroxybenzamide] | 1.8 µM | 54 µM | 8 µM | – | – | 3 µM | 33 µM | 8 µM | 1.7 µM | – | 0.2 µM | 60 µM | 0.4 µM |

From US8476255B2, “Histone deacetylase inhibitors” (Orchid Chemicals & Pharmaceuticals Limited, priority 2007, dated 2013)
